Entries after “also recorded” stand apart in the source; their conditions may differ.
These sequences were tested on HLA alleles of class II (assay: Affinity of epitopes for HLA alleles of class II). Conditions: H2B-II core epitopes, Table 1.
Assay type: binding, human
From the text: The multiepitopic peptide compounds (24 to 40-mer), having a high affinity with a maximized number of HLA molecules of class I and of class II, such as the affinities for the alleles HLA of class I and HLA of class II of the epitopes in the peptides of the sequences SEQ ID NO: 22, 23, 65, 66, 69, 73, 77, 96, 97, 137, 138, and 157, 185, have a high immunoprevalent potential corresponding to an optimal vaccine coverage, in particular for the populations concerned. The degree of coverage of the peptide compounds of the invention show a very high added value compared with the peptides of the prior art.

Row | Sequence | Affinity HLA alleles of class II
1 | AQMSMSHRT (Leishmania major) [SEQ ID NO: 42] | HLA-DRB1*07:01
2 | GRSLKAINA (Leishmania major) [SEQ ID NO: 43] | HLA-DRB1*01:01
3 | INAQMSMSH (Leishmania major) [SEQ ID NO: 44] | HLA-DRB1*04:01,; also recorded: HLA-DRB1*04:05,; also recorded: HLA-DRB1*09:01,; also recorded: HLA-DRB1*11:01,; also recorded: HLA-DRB1*15:01,; also recorded: HLA-DRB4*01:01,; also recorded: HLA-DRB5*01:01

Same assay, conditions: H2B-II peptides, Table 1

Row | Sequence | Concatenation affinity for the HLA alleles of class II
4 | AINAQMSMSHRTMKI (Leishmania major) [SEQ ID NO: 40] | HLA-DRB1*01:01, HLA-DRB1*04:01, HLA-DRB1*09:01,; also recorded: HLA-DRB1*15:01, HLA-DRB4*01:01, HLA-DRB5*01:01,; also recorded: HLA-DRB3*01:01, HLA-DRB1*11:01, HLA-DRB1*07:01
5 | GRSLKAINAQMSMSH (Leishmania major) [SEQ ID NO: 35] | HLA-DRB1*15:01, HLA-DRB1*01:01, HLA-DRB1*04:05,; also recorded: HLA-DRB1*07:01, HLA-DRB1*08:02, HLA-DRB1*09:01,; also recorded: HLA-DRB1*11:01, HLA-DRB4*01:01, HLA-DRB5*01:01,; also recorded: HLA-DRB1*04:01, HLA-DRB1*13:02
6 | INAQMSMSHRTMKIV (Leishmania major) [SEQ ID NO: 41] | HLA-DRB1*04:01, HLA-DRB1*15:01, HLA-DRB1*05:01,; also recorded: HLA-DRB1*03:01, HLA-DRB1*09:01, HLA-DRB1*11:01,; also recorded: HLA-DRB1*01:01, HLA-DRB4*01:01, HLA-DRB1*07:01,; also recorded: HLA-DRB1*13:02
7 | KAINAQMSMSHRTMK (Leishmania major) [SEQ ID NO: 39] | HLA-DRB1*07:01, HLA-DRB1*04:01, HLA-DRB1*04:05,; also recorded: HLA-DRB1*09:01, HLA-DRB1*11:01, HLA-DRB1*15:01,; also recorded: HLA-DRB5*01:01, HLA-DRB4*01:01, HLA-DRB1*03:01,

Same assay, conditions: LmLRAB-IIA core, Table 2

Row | Sequence | Concatenation affinity for HLA alleles of class II
8 | HLSIVADHM (Leishmania major) [SEQ ID NO: 88] | HLA-DRB1*01:01

Same assay, conditions: LmLRAB-IIA peptides, Table 2

Row | Sequence | Concatenation affinity for HLA alleles of class II
9 | GRHLSIVADHMPHLD (Leishmania major) [SEQ ID NO: 86] | HLA-DRB3*01:01,; also recorded: HLA-DRB1*03:01,; also recorded: HLA-DRB1*13:02,
10 | GRLHSVVGRHLSIVA (Leishmania major) [SEQ ID NO: 79] | HLA-DRB1*07:01,; also recorded: HLA-DRB5*01:01,; also recorded: HLA-DRB1*15:01,; also recorded: HLA-DRB1*11:01,; also recorded: HLA-DRB1*09:01,; also recorded: HLA-DRB4*01:01
11 | HSVVGRHLSIVADHM (Leishmania major) [SEQ ID NO: 82] | HLA-DRB1*15:01
12 | KGRLHSVVGRHLSIV (Leishmania major) [SEQ ID NO: 78] | HLA-DRB1*07:01,; also recorded: HLA-DRB5*01:01,; also recorded: HLA-DRB1*11:01,; also recorded: HLA-DRB1*15:01,; also recorded: HLA-DRB1*09:01,; also recorded: HLA-DRB4*01:01

Same assay, conditions: LmlRAB-IIB core, Table 2

Row | Sequence | Concatenation affinity for HLA alleles of class II
13 | AIVTSRKVQ (Leishmania major) [SEQ ID NO: 119] | HLA-DRB1*11:01
14 | HYSEVSAKT (Leishmania major) [SEQ ID NO: 122] | HLA-DRB1*04:01
15 | IVTSRKVQE (Leishmania major) [SEQ ID NO: 123] | HLA-DRB1*03:01,; also recorded: HLA-DRB1*08:02,; also recorded: HLA-DRB1*11:01

Same assay, conditions: LmlRAB-IIB peptides, Table 2

Row | Sequence | Concatenation affinity for HLA alleles of class II
16 | AIVTSRKVQEEVFDL (Leishmania major) [SEQ ID NO: 98] | HLA-DRB1*03:01, HLA-DRB1*11:01,; also recorded: HLA-DRB1*12:01
17 | DLFTDVHYSEVSAKT (Leishmania major) [SEQ ID NO: 99] | HLA-DRB1*04:01, HLA-DRB7*01:01,; also recorded: HLA-DPA1*01:03/DPB1*02:01,; also recorded: HLA-DPA1*01/DPB1*04:01, HLA-DPA1*02:01/; also recorded: HLA-DPB1*14:01
18 | EEVFDLFTDVHYSEV (Leishmania major) [SEQ ID NO: 100] | HLA-DRB1*01:01, HLA-DRB1*03:01,; also recorded: HLA-DRB1*04:01, HLA-DRB1*04:05,; also recorded: HLA-DRB1*07:01, HLA-DRB1*15:01,; also recorded: HLA-DRB1*12:01, HLA-DRB3*01:01,; also recorded: HLA-DPA1*01:03/DPB1*02:01,; also recorded: HLA-DPA1*01/DPB1*04:01, HLA-DPA1*02:01/; also recorded: HLA-DPB1*14:01
19 | ENAIVTSRKVQEEVF (Leishmania major) [SEQ ID NO: 101] | HLA-DRB1*03:01, HLA-DRB1*07:01,; also recorded: HLA-DRB1*08:02, HLA-DRB1*11:01,; also recorded: HLA-DRB1*12:01
20 | FDLFTDVHYSEVSAK (Leishmania major) [SEQ ID NO: 103] | HLA-DRB1*01:01, HLA-DRB1*03:01,; also recorded: HLA-DRB1*07:01, HLA-DRB1*09:01,; also recorded: HLA-DPA1*03:01/DPB1*04:02,; also recorded: HLA-DPA1*02:01/HLA-DPB1*14:01
21 | GRSENAIVTSRKVQE (Leishmania major) [SEQ ID NO: 104] | HLA-DRB1*01:01, HLA-DRB1*03:01,; also recorded: HLA-DRB1*07:01, HLA-DRB1*11:01,; also recorded: HLA-DRB1*12:01, HLA-DRB5*01:01
22 | IVTSRKVQEEVFDLF (Leishmania major) [SEQ ID NO: 105] | HLA-DRB1*03:01, HLA-DRB1*11:01,; also recorded: HLA-DPA1*01:03/DPB1*02:01,; also recorded: HLA-DPA1*01/DPB1*04:01,; also recorded: HLA-DPA1*02:01/DPB1*05:01,; also recorded: HLA-DPA1*02:01/HLA-DPB1*14:01

Same assay, conditions: PSA KC-2.6 core, Table 3

Row | Sequence | Concatenation affinity for HLA alleles of class II
23 | GYFLTDEKT (listed as Leishmania infantum) [SEQ ID NO: 147] | HLA-DRB1*04:01,; also recorded: HLA-DPA1*02:01/; also recorded: DPB1*01:01

Same assay, conditions: PSA KC-2.6 peptides, Table 3

Row | Sequence | Concatenation affinity for HLA alleles of class II
24 | EGYFLTDEKTSLVYG (listed as Leishmania infantum) [SEQ ID NO: 139] | HLA-DRB1*12:01, HLA-DRB1*13:02,; also recorded: HLA-DRB3*01:01, HLA-DRB3*02:02,; also recorded: HLA-DPA1*03:01/DPB1*04:02; also recorded: HLA-DRB1*01:01, HLA-DRB1*03:01,; also recorded: HLA-DRB1*04:01, HLA-DRB1*04:05,; also recorded: HLA-DRB1*07:01, HLA-DRB1*11:01,
25 | FLTDEKTSLVYGDGG (listed as Leishmania infantum) [SEQ ID NO: 140] | HLA-DRB1*03:01, HLA-DRB3*01:01
26 | GEGYFLTDEKTSLVY (listed as Leishmania infantum) [SEQ ID NO: 141] | HLA-DRB1*01:01, HLA-DRB1*03:01,; also recorded: HLA-DRB1*04:01, HLA-DRB1*04:05,; also recorded: HLA-DRB1*07:01, HLA-DRB1*11:01,; also recorded: HLA-DRB1*12:01, HLA-DRB1*13:02,; also recorded: HLA-DRB3*01:01, HLA-DRB3*02:02,; also recorded: HLA-DPA1*03:01/DPB1*04:02,; also recorded: HLA-DPA1*02:01/HDPB1*14:01
27 | GYFLTDEKTSLVYGD (listed as Leishmania infantum) [SEQ ID NO: 142] | HLA-DRB1*01:01, HLA-DRB1*03:01,; also recorded: HLA-DRB1*04:01, HLA-DRB1*07:01,; also recorded: HLA-DRB1*11:01, HLA-DRB3*01:01,; also recorded: HLA-DRB3*02:02,; also recorded: HLA-DPA1*02:01/DPB1*14:01,; also recorded: HLA-DPA1*03:01/DPB1*04:02

Same assay, conditions: PSA KC-2.7 core, Table 3

Row | Sequence | Concatenation affinity for HLA alleles of class II
28 | DFSNMGLLL (listed as Leishmania infantum) [SEQ ID NO: 171] | HLA-DPA1*01:03/; also recorded: DPB1*04:01,; also recorded: HLA-DPA1*03:01/; also recorded: DPB1*04:02
29 | FSNMGLLLS (listed as Leishmania infantum) [SEQ ID NO: 172] | HLA-DRB1*11:01
30 | IRDLDFSNM (listed as Leishmania infantum) [SEQ ID NO: 174] | HLA-DRB1*01:01,; also recorded: HLA-DRB4*01:01

Same assay, conditions: PSA KC-2.7 peptides, Table 3

Row | Sequence | Concatenation affinity for HLA alleles of class II
31 | DYSHSMIRDLDFSNM (listed as Leishmania infantum) [SEQ ID NO: 158] | HLA-DRB1*04:01, HLA-DRB1*04:05,; also recorded: HLA-DRB1*07:01, HLA-DRB1*09:01,; also recorded: HLA-DRB1*12:01, HLA-DRB4*01:01,; also recorded: HLA-DPA1*02:01/DPB1*14:01
32 | GSDYSHSMIRDLDFS (listed as Leishmania infantum) [SEQ ID NO: 159] | HLA-DRB1*01:01, HLA-DRB1*04:05,; also recorded: HLA-DRB1*07:01, HLA-DRB1*09:01,; also recorded: HLA-DRB4*01:01, HLA-DRB5*01:01,; also recorded: HLA-DPA1*02:01/DPB1*14:01

— patent US11559575B2, “Multi-epitopic peptide compounds and vaccines against leishmaniasis” (INSTITUT DE RECHERCHE POUR LE DEVELOPPEMENT, priority 2018, dated 2023)
